US20220281848A1, “PYRAZOLE-SUBSTITUTED PYRROLIDINONES AS HERBICIDES” (FMC Corporation, priority 2019, published 2022)

What was measured:
Format in all cases: in vivo
[1] = test system: velvetleaf (Abutilon theophrasti, ABUTH); experiment: Test A post-emergence, velvetleaf; conditions: after 13 d
Method in brief: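 Visual damage rating (0 no damage to 100 total damage) was made 13 d after spraying. The spray was 15.625, 62.5 or 250 g/ha in 50:50 acetone/water with 0.5% Tween 20, applied to 8-day-old glasshouse plants kept at 24/16° C, 14 h light and 65% humidity.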

[2] = test system: redroot pigweed (Amaranthus retroflexus, AMARE); experiment: Test A pre-emergence, redroot pigweed; conditions: after 13 d
Method in brief: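 Damage rated 0–100 (100 = total) 13 d after spraying. Application was one day post-sowing at 15.625, 62.5 or 250 g/ha, formulated in 50:50 acetone/water plus 0.5% Tween 20. Pots held in glasshouse at 24/16 °C day/night, 14 h light, 65% humidity, watered twice daily.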

[3] = test system: plants; experiment: Test D post-emergence, other plants of Tables D2 and D4; conditions: for ALOMY damage rating (100=total damage to plant; 0=no damage to plant) / AVEFA damage rating (100=total damage to plant; 0=no damage to plant) / BEAVA damage rating (100=total damage to plant; 0=no damage to plant) / BROTE damage rating (100=total damage to plant; 0=no damage to plant) / BRSNN damage rating (100=total damage to plant; 0=no damage to plant) / CHEAL damage rating (100=total damage to plant; 0=no damage to plant) / GALAP damage rating (100=total damage to plant; 0=no damage to plant) / HORVW damage rating (100=total damage to plant; 0=no damage to plant) / KCHSC damage rating (100=total damage to plant; 0=no damage to plant) / LOLPE damage rating (100=total damage to plant; 0=no damage to plant) / POAAN damage rating (100=total damage to plant; 0=no damage to plant) / POLCO damage rating (100=total damage to plant; 0=no damage to plant) / STEME damage rating (100=total damage to plant; 0=no damage to plant) / VERPE damage rating (100=total damage to plant; 0=no damage to plant): "Cereals" Postemergent, evaluated after 15 d; for damage to plant (100=total damage to plant; 0=no damage to plant), ABUTH: post-emergence
Method in brief: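 Seeds treated with herbicide safener; sown in soil; glasshouse, 16 h light, 65% humidity. Sprayed day 1 (pre) or ~day 12 (post). Spray in 0.2% v/v adjuvant. Scored 0–100 damage: 20 DAA pre, 15 d post.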

In the case of `CCn1nc([C@@H]2CN(C)C(=O)[C@H]2C(=O)Nc2cccc(F)c2F)c2cccc(F)c21` [Compound 14], the “damage to plant (100=total damage; 0=no damage) ABUTH” value ([1]; Post-Emergence at 15.625 g/ha) is reported as 0, the “damage to plant (100=total damage; 0=no damage) ABUTH” value ([1]; Post-Emergence at 62.5 g/ha) is reported as 0 and the “damage to plant (100=total damage; 0=no damage) ABUTH” value ([1]; Post-Emergence at 250 g/ha) is reported as 0. For the same compound, the “damage to plant (100=total damage; 0=no damage) AMARE” value ([2]; Pre-Emergence at 15.625 g/ha) was 0, the “damage to plant (100=total damage; 0=no damage) AMARE” value ([2]; Pre-Emergence at 62.5 g/ha) was 0 and the “damage to plant (100=total damage; 0=no damage) AMARE” value ([2]; Pre-Emergence at 250 g/ha) was 0. The “ALOMY damage rating (100=total damage to plant; 0=no damage to plant)” value ([3]; Rates 130) was 40, the “ALOMY damage rating (100=total damage to plant; 0=no damage to plant)” value ([3]; Rates 250) was 60 and the “ALOMY damage rating (100=total damage to plant; 0=no damage to plant)” value ([3]; Rates 500) was 70. For the same compound, the “AVEFA damage rating (100=total damage to plant; 0=no damage to plant)” value ([3]; Rates 130) was 30, the “AVEFA damage rating (100=total damage to plant; 0=no damage to plant)” value ([3]; Rates 250) was 70 and the “AVEFA damage rating (100=total damage to plant; 0=no damage to plant)” value ([3]; Rates 500) was 80. For the same compound, the “BEAVA damage rating (100=total damage to plant; 0=no damage to plant)” value ([3]; Rates 130) was 30, the “BEAVA damage rating (100=total damage to plant; 0=no damage to plant)” value ([3]; Rates 250) was 30 and the “BEAVA damage rating (100=total damage to plant; 0=no damage to plant)” value ([3]; Rates 500) was 20. The “BROTE damage rating (100=total damage to plant; 0=no damage to plant)” value ([3]; Rates 130) was 0, the “BROTE damage rating (100=total damage to plant; 0=no damage to plant)” value ([3]; Rates 250) was 10 and the “BROTE damage rating (100=total damage to plant; 0=no damage to plant)” value ([3]; Rates 500) was 30. The “BRSNN damage rating (100=total damage to plant; 0=no damage to plant)” value ([3]; Rates 130) was 40, the “BRSNN damage rating (100=total damage to plant; 0=no damage to plant)” value ([3]; Rates 250) was 50 and the “BRSNN damage rating (100=total damage to plant; 0=no damage to plant)” value ([3]; Rates 500) was 40. For the same compound, the “CHEAL damage rating (100=total damage to plant; 0=no damage to plant)” value ([3]; Rates 130) was 50, the “CHEAL damage rating (100=total damage to plant; 0=no damage to plant)” value ([3]; Rates 500) was 40 and the “GALAP damage rating (100=total damage to plant; 0=no damage to plant)” value ([3]; Rates 130) was 0. For the same compound, the “GALAP damage rating (100=total damage to plant; 0=no damage to plant)” value ([3]; Rates 250) was 10, the “GALAP damage rating (100=total damage to plant; 0=no damage to plant)” value ([3]; Rates 500) was 20 and the “HORVW damage rating (100=total damage to plant; 0=no damage to plant)” value ([3]; Rates 130) was 20. The “HORVW damage rating (100=total damage to plant; 0=no damage to plant)” value ([3]; Rates 250) was 70, the “HORVW damage rating (100=total damage to plant; 0=no damage to plant)” value ([3]; Rates 500) was 70 and the “KCHSC damage rating (100=total damage to plant; 0=no damage to plant)” value ([3]; Rates 130) was 10. The “KCHSC damage rating (100=total damage to plant; 0=no damage to plant)” value ([3]; Rates 250) was 20, the “KCHSC damage rating (100=total damage to plant; 0=no damage to plant)” value ([3]; Rates 500) was 20 and the “LOLPE damage rating (100=total damage to plant; 0=no damage to plant)” value ([3]; Rates 130) was 0. For the same compound, the “LOLPE damage rating (100=total damage to plant; 0=no damage to plant)” value ([3]; Rates 250) was 20, the “LOLPE damage rating (100=total damage to plant; 0=no damage to plant)” value ([3]; Rates 500) was 50 and the “POAAN damage rating (100=total damage to plant; 0=no damage to plant)” value ([3]; Rates 130) was 80. For the same compound, the “POAAN damage rating (100=total damage to plant; 0=no damage to plant)” value ([3]; Rates 250) was 90, the “POAAN damage rating (100=total damage to plant; 0=no damage to plant)” value ([3]; Rates 500) was 90 and the “POLCO damage rating (100=total damage to plant; 0=no damage to plant)” value ([3]; Rates 130) was 20. The “POLCO damage rating (100=total damage to plant; 0=no damage to plant)” value ([3]; Rates 250) was 30, the “POLCO damage rating (100=total damage to plant; 0=no damage to plant)” value ([3]; Rates 500) was 40 and the “STEME damage rating (100=total damage to plant; 0=no damage to plant)” value ([3]; Rates 250) was 50. The “STEME damage rating (100=total damage to plant; 0=no damage to plant)” value ([3]; Rates 500) was 70, the “VERPE damage rating (100=total damage to plant; 0=no damage to plant)” value ([3]; Rates 130) was 50 and the “VERPE damage rating (100=total damage to plant; 0=no damage to plant)” value ([3]; Rates 250) was 50. For the same compound, the “VERPE damage rating (100=total damage to plant; 0=no damage to plant)” value ([3]; Rates 500) was 60, the “damage to plant (100=total damage to plant; 0=no damage to plant), ABUTH” value ([3]; rate 130, evaluated after 15 d) was 0 and the “damage to plant (100=total damage to plant; 0=no damage to plant), ABUTH” value ([3]; rate 250, evaluated after 15 d) was 0. For the same compound, the “damage to plant (100=total damage to plant; 0=no damage to plant), ABUTH” value ([3]; rate 500, evaluated after 15 d) was 10.
